Columns and labels:
[1] = tested on: Streptococcus pyogenes C203; assay: Agar-dilution MIC, Streptococcus pyogenes C203; type: cell-based
Procedure: (§1) The MIC's in Table IV were determined by conventional agar-dilution assays.

[2] = Relative toxicity, median lethal dose in mice; type: in vivo; conditions: administered IP in mice
Text: Table VI summarizes the relative toxicity of illustrative formula 1a compounds.
^a When administered IP in mice

[3] = tested on: Streptococcus pyogenes; assay: In vivo protection of experimentally infected mice (ED50); conditions: administered subcutaneously, doses given 1 and 4 hours postinfection
Procedure: The formula 1a compounds have shown in vivo antimicrobial activity against experimentally-induced infections in laboratory animals. When two doses of test compound were administered to mice experimentally infected with Streptococcus pyogenes or Staphylococcus aureus, the activity observed was measured as an ED50 value [effective dose in mg/kg to protect 50% of the test animals: see Warren Wick, et al., J. Bacteriol. 81, 233-235 (1961)].

[4] = tested on: Staphylococcus aureus V41; assay: Agar-dilution MIC, Staphylococcus aureus V41; type: cell-based
Procedure: as §1

[5] = tested on: Staphylococcus epidermidis EPI1; type: cell-based; conditions: agar dilution
Procedure: as §1

[6] = tested on: Streptococcus pneumoniae Park 1; type: cell-based; conditions: agar dilution
Procedure: as §1

[7] = tested on: Streptococcus sp. group D X66; assay: Agar-dilution MIC, Streptococcus sp. group D X66; type: cell-based
Procedure: as §1

[8] = tested on: Staphylococcus aureus X400; assay: Agar-dilution MIC, Staphylococcus aureus X400; type: cell-based
Procedure: as §1

[9] = tested on: Staphylococcus aureus S13E; conditions: agar dilution
Procedure: as §1

[10] = tested on: Staphylococcus aureus X1.1; assay: Agar-dilution MIC, Staphylococcus aureus X1.1; type: cell-based
Procedure: as §1

[11] = tested on: Staphylococcus epidermidis 222; assay: Agar-dilution MIC, Staphylococcus epidermidis 222; type: cell-based
[12] = tested on: Streptococcus sp. group D 2041; assay: Agar-dilution MIC, Streptococcus sp. group D 2041; type: cell-based
Procedure: as §1

Row | Substance | MIC [1] [µg/mL] | Median Lethal Dose [2] [mg/kg] | ED50 vs. Streptococcus pyogenes [3] [mg/kg × 2] | MIC [4] [µg/mL] | MIC [5] [µg/mL] | MIC [6] [µg/mL] | MIC [7] [µg/mL] | MIC [8] [µg/mL] | MIC [9] [µg/mL] | MIC [10] [µg/mL] | MIC [11] [µg/mL] | MIC [12] [µg/mL]
1 | NTrp -(n-Nonanoyl)-A54154A Nucleus [Compound 6] | 4 | > 510 | 10.6 | 32 | 16 | 64 | 128 | 32 | 32 | 32 | 16 | 
2 | NTrp -(n-Dodecanoyl)-A54145A Nucleus [Compound 4] | 0.125 | 321 | 1.15 | 1 | 1 | 2 | 4 | 1 | 2 | 1 | 1 | 8
3 | NTrp -(n-Decanoyl)-A54145F Nucleus [Compound 10] | 4 | > 505 | 10.8 | 16 | 16 | 32 | 128 | 16 | 16 | 16 | 16 | 128
4 | NTrp -(n-Undecanoyl)-A54145A Nucleus [Compound 2] | 0.5 | > 520 | 1.65 | 4 | 2 | 2 | 16 | 4 | 4 | 2 | 2 | 32
5 | NTrp -(n-Tetradecanoyl)-A54145 Nucleus [Compound 26] | 0.06 |  |  | 0.25 | 0.5 | 0.125 | 2 | 0.5 | 0.25 | 0.25 | 0.5 | 4

— patent US5028590A, “Derivatives of A54145 cyclic peptides” (priority 1988, dated 1991)
